Data published in ChEMBL document CHEMBL1132844, “Assessment of substitution in the second pharmacophore of Dmt-Tic analogues” (Bioorg Med Chem Lett, 2000).
Activity calls are given as the source filed them. The rule behind the calls is not given here. Square brackets hold non-standard residues; d marks the D form. Peptide text beside a SMILES is read from it. ξ: configuration not given here. Dmt = Cc1cc(O)cc(C)c1C[C@H](N)C(=O)O; ξTic = O=C(O)C1Cc2ccccc2CN1

Key:
[1] = target: T1, Delta-type opioid receptor (Mus musculus, UniProt P32300); experiment: (§1) Negative logarithm of the molar concentration of delta receptor was determined in mouse vas deferens; details: read-out: pA2 (converted)
T1 sequence (P32300 whole entry): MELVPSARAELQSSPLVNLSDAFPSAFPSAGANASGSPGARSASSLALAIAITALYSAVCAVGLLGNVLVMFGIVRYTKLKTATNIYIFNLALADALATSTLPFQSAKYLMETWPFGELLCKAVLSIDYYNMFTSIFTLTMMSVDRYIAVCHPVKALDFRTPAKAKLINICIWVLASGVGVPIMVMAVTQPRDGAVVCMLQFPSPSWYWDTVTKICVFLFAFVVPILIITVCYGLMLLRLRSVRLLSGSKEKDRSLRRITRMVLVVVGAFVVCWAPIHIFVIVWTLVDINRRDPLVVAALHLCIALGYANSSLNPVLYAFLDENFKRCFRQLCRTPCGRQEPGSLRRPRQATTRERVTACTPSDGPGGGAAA

[2] = target: Delta-type opioid receptor (Mus musculus) (UniProt P32300); experiment: Negative logarithm of the molar concentration of delta receptor was determined in mouse vas deferens; i represents inactivity up to 1 mM; assay type: functional
Sequence of Delta-type opioid receptor (Mus musculus) (P32300 whole entry): as above

Mu-type opioid receptor [3] = target: T2, Mu-type opioid receptor (Cavia porcellus, UniProt P97266); experiment: Negative logarithm of the molar concentration for agonist activity at mu receptor was determined in guinea pig ileum; assay type: functional, tissue-based
T2 sequence (P97266 whole entry): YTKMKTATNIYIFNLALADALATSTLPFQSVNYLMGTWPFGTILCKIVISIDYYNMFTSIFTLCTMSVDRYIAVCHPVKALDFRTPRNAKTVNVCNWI

[4] = target: T1, Delta-type opioid receptor; experiment: as §1; assay type: functional; details: read-out: pA2 (converted)
Mu-type opioid receptor [5] = target: T2, Mu-type opioid receptor; experiment: Negative logarithm of the molar concentration for agonist activity at Opioid receptor mu 1 was determined in guinea pig ileum; assay type: functional, tissue-based
[6] = target: Delta-type opioid receptor (Mus musculus) (UniProt P32300)

Compound	Kb [1] [nM]	Log EC50 [2]	EC50 (Mu-type opioid receptor [3]) [nM]	Kb [4] [nM]	EC50 (Mu-type opioid receptor [5]) [nM]	Log EC50 [6]
Cc1cc(O)cc(C)c1C[C@H](N)C(=O)N1CCc2ccccc2C1	38.9	inactive	490	–	–	–
C[C@@H](NC(=O)[C@@H](N)Cc1ccc(O)cc1)C(=O)N[C@@H](Cc1ccccc1)C(=O)NCC(=O)N[C@@H](Cc1ccc(O)cc1)C(=O)N1CCC[C@H]1C(=O)N[C@@H](CO)C(N)=O [DERMORPHIN]	–	–	1.58	–	–	–
Cc1cc(O)cc(C)c1C[C@H](N)C(=O)N1Cc2ccccc2CC1C(N)=O (some centres undefined) (H-[Dmt]-[ξTic]-NH2)	–	inactive	–	63.1	> 10000	–
Cc1cc(O)cc(C)c1C[C@H](N)C(=O)N1Cc2ccc(F)cc2CC1C(=O)O (some centres undefined)	35.5	–	813	–	–	inactive
Cc1cc(O)cc(C)c1C[C@H](N)C(=O)N1Cc2ccccc2CC1COCc1ccccc1 (some centres undefined)	13.5	–	525	–	–	inactive
Cc1cc(O)cc(C)c1C[C@H](N)C(=O)N1Cc2ccccc2CC1CO (some centres undefined)	–	inactive	–	100	> 10000	–
Cc1cc(O)cc(C)c1C[C@H](N)C(=O)N1CCc2ccc(F)cc2C1	617	–	631	–	–	inactive
